Measurements: PMC11079024, “Identification of a family of species-selective complex I inhibitors as potential anthelmintics” (Nature Communications, 2024)

Target: C. elegans (N2) complex I (NADH:ubiquinone oxidoreductase) (Caenorhabditis elegans, UniProt P24887+Q93873+Q94360)
Sequence (Q94360 17-199): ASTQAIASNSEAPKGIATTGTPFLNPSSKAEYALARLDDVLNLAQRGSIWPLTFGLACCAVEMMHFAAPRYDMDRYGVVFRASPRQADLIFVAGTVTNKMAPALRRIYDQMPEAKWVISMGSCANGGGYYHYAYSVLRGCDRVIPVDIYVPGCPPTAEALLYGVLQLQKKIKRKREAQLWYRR
Sequence (P24887 whole entry): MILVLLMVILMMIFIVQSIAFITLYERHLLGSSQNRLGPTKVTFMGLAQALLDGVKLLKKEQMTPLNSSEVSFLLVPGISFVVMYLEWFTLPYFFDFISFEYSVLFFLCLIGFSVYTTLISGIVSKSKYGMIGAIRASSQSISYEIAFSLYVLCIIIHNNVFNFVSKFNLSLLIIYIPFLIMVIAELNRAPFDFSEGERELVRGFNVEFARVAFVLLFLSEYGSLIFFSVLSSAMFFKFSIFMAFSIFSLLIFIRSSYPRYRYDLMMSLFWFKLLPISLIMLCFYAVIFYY
Sequence (Q93873 31-482): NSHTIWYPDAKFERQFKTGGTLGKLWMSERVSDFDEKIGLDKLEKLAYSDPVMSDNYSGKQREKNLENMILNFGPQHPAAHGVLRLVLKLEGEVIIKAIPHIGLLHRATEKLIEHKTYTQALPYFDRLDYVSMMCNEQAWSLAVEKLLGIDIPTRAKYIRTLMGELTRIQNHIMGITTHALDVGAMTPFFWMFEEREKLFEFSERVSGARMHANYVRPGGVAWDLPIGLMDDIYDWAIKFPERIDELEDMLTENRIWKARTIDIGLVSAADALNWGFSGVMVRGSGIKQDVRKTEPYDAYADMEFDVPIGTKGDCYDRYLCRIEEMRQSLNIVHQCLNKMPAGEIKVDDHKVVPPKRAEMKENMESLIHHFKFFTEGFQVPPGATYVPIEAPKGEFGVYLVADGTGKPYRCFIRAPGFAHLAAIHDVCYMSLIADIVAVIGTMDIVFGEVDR
Test: biochemical
Type: biochemical
Conditions: Dose 0.0001 µM; read-out: C. elegans mitochondrial complex I activity
Outline: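 Activity expressed as percent of solvent control. Complex I rate came from DCIP reduction at 600 nm (initial linear slope, 15 min) with NADH and decylubiquinone as substrates, plus antimycin A and KCN, in pH 7.5 KPi/BSA buffer. Isolated, thrice freeze-thawed mitochondria used at 0.2 mg/mL.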
`Cc1ccccc1OCCCn1c(C)nc2ccccc21` [Compound 7916923] gave an activity at 0.0001 µM of 94.5%. `Cc1ccc(OCCn2cnc3ccccc32)c(C)c1` [Compound 7706808] gave an activity at 0.0001 µM of 101%.

Same assay, conditions: Dose 0.0005 µM; read-out: C. elegans mitochondrial complex I activity
`Cc1ccccc1OCCCn1c(C)nc2ccccc21` [Compound 7916923] gave an activity at 0.0005 µM of 93.6%. `Cc1ccc(OCCn2cnc3ccccc32)c(C)c1` [Compound 7706808] showed an activity at 0.0005 µM of 107%.

Same assay, conditions: Dose 0.001 µM; read-out: C. elegans mitochondrial complex I activity
For `Cc1ccccc1OCCCn1c(C)nc2ccccc21` [Compound 7916923], the activity at 0.001 µM was 94.8%. Work on `Cc1ccc(OCCn2cnc3ccccc32)c(C)c1` [Compound 7706808] yielded an activity at 0.001 µM of 103%.

Same assay, conditions: Dose 0.0025 µM; read-out: C. elegans mitochondrial complex I activity
For `Cc1ccccc1OCCCn1c(C)nc2ccccc21` [Compound 7916923], the activity at 0.0025 µM was 99.1%. With `Cc1ccc(OCCn2cnc3ccccc32)c(C)c1` [Compound 7706808] the activity at 0.0025 µM was 109%.

Same assay, conditions: Dose 0.005 µM; read-out: C. elegans mitochondrial complex I activity
In the case of `Cc1ccccc1OCCCn1c(C)nc2ccccc21` [Compound 7916923], the activity at 0.005 µM is reported as 96.8%. `Cc1ccc(OCCn2cnc3ccccc32)c(C)c1` [Compound 7706808] gave an activity at 0.005 µM of 101%.

Same assay, conditions: Dose 0.013 µM; read-out: C. elegans mitochondrial complex I activity
With `Cc1ccccc1OCCCn1c(C)nc2ccccc21` [Compound 7916923] the activity at 0.013 µM was 102%. Work on `Cc1ccc(OCCn2cnc3ccccc32)c(C)c1` [Compound 7706808] yielded an activity at 0.013 µM of 107%.

Same assay, conditions: Dose 0.025 µM; read-out: C. elegans mitochondrial complex I activity
Work on `Cc1ccccc1OCCCn1c(C)nc2ccccc21` [Compound 7916923] yielded an activity at 0.025 µM of 94.3%. For `Cc1ccc(OCCn2cnc3ccccc32)c(C)c1` [Compound 7706808], the activity at 0.025 µM was 105%.

Same assay, conditions: Dose 0.063 µM; read-out: C. elegans mitochondrial complex I activity
Work on `Cc1ccccc1OCCCn1c(C)nc2ccccc21` [Compound 7916923] yielded an activity at 0.063 µM of 89.3%. With `Cc1ccc(OCCn2cnc3ccccc32)c(C)c1` [Compound 7706808] the activity at 0.063 µM was 101%.

Same assay, conditions: Dose 0.125 µM; read-out: C. elegans mitochondrial complex I activity
With `Cc1ccccc1OCCCn1c(C)nc2ccccc21` [Compound 7916923] the activity at 0.125 µM was 86.3%. `Cc1ccc(OCCn2cnc3ccccc32)c(C)c1` [Compound 7706808] gave an activity at 0.125 µM of 94.3%.

Same assay, conditions: Dose 0.313 µM; read-out: C. elegans mitochondrial complex I activity
Work on `Cc1ccccc1OCCCn1c(C)nc2ccccc21` [Compound 7916923] yielded an activity at 0.313 µM of 78.5%. Work on `Cc1ccc(OCCn2cnc3ccccc32)c(C)c1` [Compound 7706808] yielded an activity at 0.313 µM of 97.4%.

Same assay, conditions: Dose 0.625 µM; read-out: C. elegans mitochondrial complex I activity
With `Cc1ccccc1OCCCn1c(C)nc2ccccc21` [Compound 7916923] the activity at 0.625 µM was 65.6%. For `Cc1ccc(OCCn2cnc3ccccc32)c(C)c1` [Compound 7706808], the activity at 0.625 µM was 70.9%.

Same assay, conditions: Dose 1.5 µM; read-out: C. elegans mitochondrial complex I activity
For `Cc1ccccc1OCCCn1c(C)nc2ccccc21` [Compound 7916923], the activity at 1.5 µM was 42.6%. Work on `Cc1ccc(OCCn2cnc3ccccc32)c(C)c1` [Compound 7706808] yielded an activity at 1.5 µM of 55.5%.

Same assay, conditions: Dose 3 µM; read-out: C. elegans mitochondrial complex I activity
For `Cc1ccccc1OCCCn1c(C)nc2ccccc21` [Compound 7916923], the activity at 3 µM was 27.6%. Molecule `Cc1ccc(OCCn2cnc3ccccc32)c(C)c1` [Compound 7706808] has an activity at 3 µM of 44.2%.

Same assay, conditions: Dose 15 µM; read-out: C. elegans mitochondrial complex I activity
Work on `Cc1ccccc1OCCCn1c(C)nc2ccccc21` [Compound 7916923] yielded an activity at 15 µM of 7.28%. `Cc1ccc(OCCn2cnc3ccccc32)c(C)c1` [Compound 7706808] gave an activity at 15 µM of 16.3%.

Same assay, conditions: Dose 37.5 µM; read-out: C. elegans mitochondrial complex I activity
`Cc1ccccc1OCCCn1c(C)nc2ccccc21` [Compound 7916923] showed an activity at 37.5 µM of 4.39%. Molecule `Cc1ccc(OCCn2cnc3ccccc32)c(C)c1` [Compound 7706808] has an activity at 37.5 µM of 13.2%.

Same assay, conditions: Dose 75 µM; read-out: C. elegans mitochondrial complex I activity
`Cc1ccccc1OCCCn1c(C)nc2ccccc21` [Compound 7916923] showed an activity at 75 µM of 4.47%. In the case of `Cc1ccc(OCCn2cnc3ccccc32)c(C)c1` [Compound 7706808], the activity at 75 µM is reported as 13.5%.

Same assay, conditions: in vitro complex I dose response on C. elegans mitochondria; average of at least two biological replicates; fit in R (DRC); read-out: IC50 C. elegans complex I
Molecule `Cc1ccccc1OCCCn1c(C)nc2ccccc21` [Compound 7916923] has an IC50 of 1170 nM. `Cc1ccc(OCCn2cnc3ccccc32)c(C)c1` [Compound 7706808] gave an IC50 of 1450 nM.

Same assay, conditions: log10 of IC50 in µM; C. elegans mitochondria
For `Cc1ccccc1OCCCn1c(C)nc2ccccc21` [Compound 7916923], the “Log IC50 C. elegans complex I” value was 0.07 µM. With `Cc1ccc(OCCn2cnc3ccccc32)c(C)c1` [Compound 7706808] the “Log IC50 C. elegans complex I” value was 0.16 µM.

Same assay, conditions: wild-type C. elegans mitochondria; estimated from fitted dose-response curves; read-out: C. elegans Complex I IC50
Work on `Cc1ccccc1OCCCn1c(C)nc2ccccc21` [Compound 7916923] yielded an IC50 of 1170 nM. For `Cc1ccc(OCCn2cnc3ccccc32)c(C)c1` [Compound 7706808], the IC50 was 1450 nM.

System: L1 wild-type C. elegans
Test: not given
Conditions: 50 μM; […]; hit = relative motility below 0.25 3 hours after removal of KCN
For `Cc1ccccc1OCCCn1c(C)nc2ccccc21` [Compound 7916923], the “Screen "Hit"” value was “Y (hits were identified as compounds that reduced relative motility below 0.25 (75% reduction))”. In the case of `Cc1ccc(OCCn2cnc3ccccc32)c(C)c1` [Compound 7706808], the “Screen "Hit"” value is reported as “Y (hits were identified as compounds that reduced relative motility below 0.25 (75% reduction))”.

Same assay, conditions: Dose 0.2 µM; mean of at least three biological replicates
In the case of `Cc1ccccc1OCCCn1c(C)nc2ccccc21` [Compound 7916923], the “C. elegans KCN Survival” value is reported as 0.930. For `Cc1ccc(OCCn2cnc3ccccc32)c(C)c1` [Compound 7706808], the “C. elegans KCN Survival” value was 0.957.

Same assay, conditions: Dose 0.39 µM
For `Cc1ccccc1OCCCn1c(C)nc2ccccc21` [Compound 7916923], the “C. elegans KCN Survival” value was 1.083. For `Cc1ccc(OCCn2cnc3ccccc32)c(C)c1` [Compound 7706808], the “C. elegans KCN Survival” value was 1.031.

Same assay, conditions: Dose 1.56 µM
With `Cc1ccccc1OCCCn1c(C)nc2ccccc21` [Compound 7916923] the “C. elegans KCN Survival” value was 1.052. For `Cc1ccc(OCCn2cnc3ccccc32)c(C)c1` [Compound 7706808], the “C. elegans KCN Survival” value was 1.000.

Same assay, conditions: Dose 3.13 µM
For `Cc1ccccc1OCCCn1c(C)nc2ccccc21` [Compound 7916923], the “C. elegans KCN Survival” value was 0.985. With `Cc1ccc(OCCn2cnc3ccccc32)c(C)c1` [Compound 7706808] the “C. elegans KCN Survival” value was 0.998.

Same assay, conditions: Dose 6.25 µM
For `Cc1ccccc1OCCCn1c(C)nc2ccccc21` [Compound 7916923], the “C. elegans KCN Survival” value was 0.888. With `Cc1ccc(OCCn2cnc3ccccc32)c(C)c1` [Compound 7706808] the “C. elegans KCN Survival” value was 0.894.

Same assay, conditions: Dose 12.5 µM
For `Cc1ccccc1OCCCn1c(C)nc2ccccc21` [Compound 7916923], the “C. elegans KCN Survival” value was 0.491. With `Cc1ccc(OCCn2cnc3ccccc32)c(C)c1` [Compound 7706808] the “C. elegans KCN Survival” value was 0.483.

Same assay, conditions: Dose 25 µM
In the case of `Cc1ccccc1OCCCn1c(C)nc2ccccc21` [Compound 7916923], the “C. elegans KCN Survival” value is reported as 0.124. For `Cc1ccc(OCCn2cnc3ccccc32)c(C)c1` [Compound 7706808], the “C. elegans KCN Survival” value was 0.132.

Same assay, conditions: Dose 50 µM
With `Cc1ccccc1OCCCn1c(C)nc2ccccc21` [Compound 7916923] the “C. elegans KCN Survival” value was 0.136. In the case of `Cc1ccc(OCCn2cnc3ccccc32)c(C)c1` [Compound 7706808], the “C. elegans KCN Survival” value is reported as 0.135.

Same assay, conditions: Dose 100 µM
For `Cc1ccccc1OCCCn1c(C)nc2ccccc21` [Compound 7916923], the “C. elegans KCN Survival” value was 0.168. With `Cc1ccc(OCCn2cnc3ccccc32)c(C)c1` [Compound 7706808] the “C. elegans KCN Survival” value was 0.199.

System: not listed separately
Test: in vitro
Conditions: human
With `Cc1ccccc1OCCCn1c(C)nc2ccccc21` [Compound 7916923] the CC50 at 2 days was 45500 nM. In the case of `Cc1ccc(OCCn2cnc3ccccc32)c(C)c1` [Compound 7706808], the CC50 at 2 days is reported as 89100 nM.

Same assay, conditions: human, HEK293 cells (Flp-In-293), HEK293 viability, Dose 3.13 µM
For `Cc1ccccc1OCCCn1c(C)nc2ccccc21` [Compound 7916923], the viability at 2 days, 3.13 µM was 84.6%. For `Cc1ccc(OCCn2cnc3ccccc32)c(C)c1` [Compound 7706808], the viability at 2 days, 3.13 µM was 100%.

Same assay, conditions: human, HEK293 cells (Flp-In-293), HEK293 viability, Dose 6.25 µM
`Cc1ccc(OCCn2cnc3ccccc32)c(C)c1` [Compound 7706808] showed a viability at 2 days, 6.25 µM of 100%.

Same assay, conditions: human, HEK293 cells (Flp-In-293), HEK293 viability, Dose 12.5 µM
With `Cc1ccccc1OCCCn1c(C)nc2ccccc21` [Compound 7916923] the viability at 2 days, 12.5 µM was 95.2%. `Cc1ccc(OCCn2cnc3ccccc32)c(C)c1` [Compound 7706808] showed a viability at 2 days, 12.5 µM of 100%.

Same assay, conditions: human, HEK293 cells (Flp-In-293), HEK293 viability, Dose 25 µM
`Cc1ccccc1OCCCn1c(C)nc2ccccc21` [Compound 7916923] showed a viability at 2 days, 25 µM of 73.1%. Work on `Cc1ccc(OCCn2cnc3ccccc32)c(C)c1` [Compound 7706808] yielded a viability at 2 days, 25 µM of 100%.

Same assay, conditions: human, HEK293 cells (Flp-In-293), HEK293 viability, Dose 50 µM
Work on `Cc1ccccc1OCCCn1c(C)nc2ccccc21` [Compound 7916923] yielded a viability at 2 days, 50 µM of 41.6%.

Same assay, conditions: human, HEK293 cells (Flp-In-293), HEK293 viability, Dose 100 µM
In the case of `Cc1ccccc1OCCCn1c(C)nc2ccccc21` [Compound 7916923], the viability at 2 days, 100 µM is reported as 9.6%. `Cc1ccc(OCCn2cnc3ccccc32)c(C)c1` [Compound 7706808] showed a viability at 2 days, 100 µM of 36.2%.

Same assay, conditions: human, HEK293 viability, Dose 6.25 µM
Molecule `Cc1ccccc1OCCCn1c(C)nc2ccccc21` [Compound 7916923] has a viability of 94.9%.

Same assay, conditions: human, HEK293 viability, Dose 50 µM
With `Cc1ccc(OCCn2cnc3ccccc32)c(C)c1` [Compound 7706808] the viability was 94.6%.
